This assay deals with B6C3F1 mice, intracerebral ependymoblastoma, median survival T/C. As to the kind of experiment: NCI In Vivo Anticancer Drug Screen. Data for tumor model Ependymoblastoma (intracerebral) in B6C3F1 mice. The following applies: endpoint: median survival time, higher = longer survival. As for the experimental part:
The antitumor activity of compounds was measured in mice bearing transplantable tumors. Survival or tumor size were measured and the results are expressed as the measurement made in the treated group (T) divided by the measurement made in the vehicle treated control group (C). The tumor model used in this assay is Ependymoblastoma (intracerebral) in B6C3F1 mice

Where [1] appears, read: dose: 1.0 mg/kg/injection, schedule: Q01DX005 (ip), vehicle: saline.
Setting [2] is: dose: 4.0 mg/kg/injection, schedule: Q01DX005 (ip), vehicle: saline.
The mark [3] stands for this setting: dose: 8.0 mg/kg/injection, schedule: Q01DX005 (ip), vehicle: saline.
[4] abbreviates: dose: 16.0 mg/kg/injection, schedule: Q01DX005 (ip), vehicle: saline.
The mark [5] stands for this setting: dose: 32.0 mg/kg/injection, schedule: Q01DX005 (ip), vehicle: saline.
[6] abbreviates: dose: 0.06 mg/kg/injection, schedule: Q01DX005 (ip), vehicle: saline.
Where [7] appears, read: dose: 0.13 mg/kg/injection, schedule: Q01DX005 (ip), vehicle: saline.

“And” between values parts separate entries of the source, which are not always exact repeats. Identical values can stand only once. Inconclusive results and toxic doses are left out.

Regarding `COc1cc([C@@H]2c3cc4c(cc3[C@@H](OC3OC5COC(C)OC5C(O)C3O)[C@H]3COC(=O)[C@H]23)OCO4)cc(OC)c1O` (some centres undefined), the T/C by setting is: (dose: 0.5 mg/kg/injection, schedule: Q01DX005 (ip), vehicle: suspension in saline) 101 % of control; (dose: 1.0 mg/kg/injection, schedule: Q01DX005 (ip), vehicle: suspension in saline) 100 % of control; (dose: 2.0 mg/kg/injection, schedule: Q01DX005 (ip), vehicle: suspension in saline) 110 % of control and 114 % of control; (dose: 4.0 mg/kg/injection, schedule: Q01DX005 (ip), vehicle: suspension in saline) 112 % of control and 120 % of control; (dose: 16.0 mg/kg/injection, schedule: Q01DX005 (ip), vehicle: suspension in saline) 102 % of control.

With `Nc1ncn(C2OC(CO)C(O)C2O)c(=O)n1` (centres undefined), the T/C is 111 % of control (dose: 0.59 mg/kg/injection, schedule: Q03HX024 (ip), vehicle: saline); 116 % of control (dose: 0.75 mg/kg/injection, schedule: Q01DX005 (ip), vehicle: saline); 109 % of control (dose: 1.17 mg/kg/injection, schedule: Q03HX024 (ip), vehicle: saline); 109 % of control (dose: 1.5 mg/kg/injection, schedule: Q01DX005 (ip), vehicle: saline); 116 % of control (dose: 2.34 mg/kg/injection, schedule: Q03HX024 (ip), vehicle: saline); 116 % of control (dose: 3.0 mg/kg/injection, schedule: Q01DX005 (ip), vehicle: saline). In addition, the T/C (dose: 9.38 mg/kg/injection, schedule: Q03HX024 (ip), vehicle: saline) is 154 % of control.

In the case of `O=c1[nH]cc(F)c(=O)[nH]1`, the T/C was 108 % of control (dose: 0.5 mg/kg/injection, schedule: Q01DX005 (ip), vehicle: saline); 108 % of control under setting [1]; 111 % of control (dose: 2.0 mg/kg/injection, schedule: Q01DX005 (ip), vehicle: saline); 113 % of control under setting [2]; 105 % of control under setting [3]; 105 % of control under setting [4]. Moreover, the T/C under setting [5] was 120 % of control.

For the compound `Cc1c[nH]c(=O)[nH]c1=O`, the T/C is, setting by setting: (dose: 64.0 mg/kg/injection, schedule: Q01DX005 (ip), vehicle: Klucel (hydroxypropylcellulose) (HPC)) 104 % of control; (dose: 128.0 mg/kg/injection, schedule: Q01DX005 (ip), vehicle: Klucel (hydroxypropylcellulose) (HPC)) 92 % of control; (dose: 256.0 mg/kg/injection, schedule: Q01DX005 (ip), vehicle: Klucel (hydroxypropylcellulose) (HPC)) 99 % of control; (dose: 512.0 mg/kg/injection, schedule: Q01DX005 (ip), vehicle: Klucel (hydroxypropylcellulose) (HPC)) 95 % of control; (dose: 1024.0 mg/kg/injection, schedule: Q01DX005 (ip), vehicle: Klucel (hydroxypropylcellulose) (HPC)) 95 % of control.

Regarding `C1CN(P2(N3CC3)=NP(N3CC3)(N3CC3)=NP(N3CC3)(N3CC3)=N2)CCO1` (centres undefined), the T/C runs as follows: (dose: 20.0 mg/kg/injection, schedule: Q01DX001 (ip), vehicle: saline) 101 % of control; (dose: 40.0 mg/kg/injection, schedule: Q01DX001 (ip), vehicle: saline) 102 % of control; (dose: 80.0 mg/kg/injection, schedule: Q01DX001 (ip), vehicle: saline) 96 % of control.

Consider `CCC(=O)OCC1OC(n2cnc3c(=S)nc(N)[nH]c32)C(OC(=O)CC)C1OC(=O)CC` (centres undefined), for which the T/C reads like this: (dose: 3.12 mg/kg/injection, schedule: Q01DX005 (ip), vehicle: Klucel (hydroxypropylcellulose) (HPC)) 104 % of control; (dose: 6.25 mg/kg/injection, schedule: Q01DX005 (ip), vehicle: Klucel (hydroxypropylcellulose) (HPC)) 110 % of control; (dose: 12.5 mg/kg/injection, schedule: Q01DX005 (ip), vehicle: Klucel (hydroxypropylcellulose) (HPC)) 121 % of control; (dose: 25.0 mg/kg/injection, schedule: Q01DX005 (ip), vehicle: Klucel (hydroxypropylcellulose) (HPC)) 120 % of control.

For the compound `CCCC(=O)OCC1OC(n2cnc3c(=S)nc[nH]c32)C(OC(=O)CCC)C1OC(=O)CCC` (centres undefined), the T/C runs as follows: (dose: 25.0 mg/kg/injection, schedule: Q01DX005 (ip), vehicle: saline with Tween-80) 103 % of control; (dose: 50.0 mg/kg/injection, schedule: Q01DX005 (ip), vehicle: saline with Tween-80) 105 % of control.

On to `CN(C)CCCNc1c2ccccc2nc2cccc([N+](=O)[O-])c12`, for which the T/C runs as follows: (dose: 0.06 mg/kg/injection, schedule: Q01DX001 (oral), vehicle: saline) 102 % of control; under setting [6], 103 % of control and 105 % of control and 112 % of control; (dose: 0.12 mg/kg/injection, schedule: Q01DX001 (oral), vehicle: saline) 98 % of control; (dose: 0.12 mg/kg/injection, schedule: Q01DX005 (ip), vehicle: saline) 92 % of control; under setting [7], 102 % of control; (dose: 0.25 mg/kg/injection, schedule: Q01DX001 (oral), vehicle: saline) 103 % of control. Further, the T/C (dose: 0.5 mg/kg/injection, schedule: Q01DX001 (oral), vehicle: saline) is 100 % of control; the T/C (dose: 1.0 mg/kg/injection, schedule: Q01DX001 (oral), vehicle: saline) is 108 % of control; the T/C (dose: 2.0 mg/kg/injection, schedule: Q01DX001 (oral), vehicle: saline) was 108 % of control; the T/C (dose: 4.0 mg/kg/injection, schedule: Q01DX001 (oral), vehicle: saline) was 103 % of control; the T/C (dose: 16.0 micrograms/kg/injection, schedule: Q01DX005 (ip), vehicle: saline) is 100 % of control and 110 % of control; the T/C (dose: 32.0 micrograms/kg/injection, schedule: Q01DX005 (ip), vehicle: saline) is 100 % of control and 102 % of control. Further, the T/C by setting is: (dose: 63.0 micrograms/kg/injection, schedule: Q01DX005 (ip), vehicle: saline) 97 % of control and 104 % of control; (dose: 125.0 micrograms/kg/injection, schedule: Q01DX005 (ip), vehicle: saline) 100 % of control and 106 % of control.

As for `O=NN(CCCl)C(=O)NC1CCCN(Cc2ccccc2)C1` (centres undefined), the T/C was 178 % of control (dose: 50.0 mg/kg/injection, schedule: Q01DX001 (ip), vehicle: distilled water + Tween-80) and 223 % of control (dose: 100.0 mg/kg/injection, schedule: Q01DX001 (ip), vehicle: distilled water + Tween-80).

With `C[n+]1c2ccccc2nc2c(N)cc(N)cc21`, the T/C under setting [2] is 100 % of control and 101 % of control; the T/C under setting [3] was 101 % of control and 102 % of control; the T/C under setting [4] was 103 % of control and 108 % of control; the T/C under setting [5] is 103 % of control and 114 % of control.

For the compound `CCOC(OCC)C(=O)OCC(=O)[C@]1(O)Cc2c(O)c3c(c(O)c2[C@@H](OC2CC(N)C(O)C(C)O2)C1)C(=O)c1c(OC)cccc1C3=O` (some centres undefined), the T/C is 103 % of control (dose: 0.12 mg/kg/injection, schedule: Q01DX005 (ip), vehicle: water); 102 % of control and 113 % of control (dose: 0.25 mg/kg/injection, schedule: Q01DX005 (ip), vehicle: water); 101 % of control and 105 % of control (dose: 0.5 mg/kg/injection, schedule: Q01DX005 (ip), vehicle: water); 98 % of control and 109 % of control (dose: 1.0 mg/kg/injection, schedule: Q01DX005 (ip), vehicle: water); 101 % of control and 103 % of control (dose: 2.0 mg/kg/injection, schedule: Q01DX005 (ip), vehicle: water); 109 % of control (dose: 4.0 mg/kg/injection, schedule: Q01DX005 (ip), vehicle: water).

In the case of `Cc1cc2nc3ccc(N)cc3oc-2cc1=[N+](C)C`, the T/C by setting is: (dose: 6.25 mg/kg/injection, schedule: Q01DX005 (ip), vehicle: saline) 106 % of control; (dose: 12.5 mg/kg/injection, schedule: Q01DX005 (ip), vehicle: saline) 105 % of control; (dose: 25.0 mg/kg/injection, schedule: Q01DX005 (ip), vehicle: saline) 102 % of control; (dose: 50.0 mg/kg/injection, schedule: Q01DX005 (ip), vehicle: saline) 91 % of control.

For the compound `CN(C)N=Nc1ccc(C(N)=O)cc1`, the T/C is 156 % of control (dose: 16.0 mg/kg/injection, schedule: Q01DX005 (ip), vehicle: saline with Tween-80) and 162 % of control (dose: 32.0 mg/kg/injection, schedule: Q01DX005 (ip), vehicle: saline with Tween-80).

Regarding `C1CN1c1nc(N2CC2)nc(N2CC2)n1`, the T/C reads like this: under setting [6], 110 % of control; under setting [7], 106 % of control and 119 % of control; (dose: 0.25 mg/kg/injection, schedule: Q01DX005 (ip), vehicle: saline) 115 % of control and 124 % of control; under setting [1], 189 % of control and 238 % of control.

Source of the values: PubChem BioAssay AID226 (DTP/NCI, 2004).
